Entries after “also recorded” stand apart in the source; their conditions may differ.
Key:
[1] = target: PPARα (Homo sapiens (Human), UniProt Q07869); assay: Transcriptional activation assay in COS7 cells, PPARα; assay type: cell-based; details: PPRE luciferase reporter, PD151 and PD152 at 10 μM
Protocol: COS-7 were cultured in 6-well plates and co-transfected with either a luciferase reporter driven by 3 copies of a PPRE and expression vector for either PPARδ, PPARα or PPARγ together with a vector harboring cDNA for β-galactosidase, serving as a transfection control. To test whether FABP4 or FABP5 mediate activation of their cognate receptors PPARγ and PPARδ, respectively, cells were also co-transfected with a plasmid harboring sequence of either FABP4 or FABP5. 18 h post-transfection, cells were placed in a serum-free medium and treated with agonist/compound. 18 h. later, cells were lysed, luciferase activity was assayed (Promega, WI, USA) and corrected for transfection efficiency by the activity of β-galactosidase.
Transcriptional activation assays were carried out utilizing COS7 cells as described above.

[2] = Single dose IV and PO PK study in Han Wistar rats; assay type: in vivo
Protocol: C57BL/6 male mice or Han Wistar rats were used, n=3 for each administration route and compound. Single dose of each compound was administered orally (PO, 10 mg/Kg) or by intravenous administration (IV, 1 mg/Kg). Following intravenous and oral administration, blood samples (ca 0.2 mL) were collected and compound amount was measured by HLPC. For IV group, blood samples were collected at 0.083, 0.25, 0.5, 1, 2, 4, 6, 8, and 24 hours post-dose. For PO group, blood samples were collected at 0.25, 0.5, 1, 2, 4, 6, 8, and 24 hours post-dose.

[3] = test system: Salmonella typhimurium tester strain TA98; assay: Ames test (Bacterial Reverse Mutation Test), TA98; assay type: cell-based
Protocol: (§1) PD152 (compound 2) was tested for genotoxic and cytotoxic side effects by Ames test. The Ames test is a Bacterial Reverse Mutation Test of mutagenicity that utilizes Salmonella typhimurium tester strains TA98, TA100, TA1535, TA1537 and Escherichia coli tester strain WP2 uvrA (pKM101), both in the presence and absence of S9.
(§2) The compound PD152 was tested at 10 concentrations (0.032-1000 μg/plate) in the presence of, or absence of, the hepatic enzyme S9.
The aniline FABP4/5 inhibitor compound, 2-((2-((2,4-dichloro-5-isopropoxyphenyl)amino)-2-oxoethyl)thio)-2-methylpropanoic acid (compound “B104” as disclosed in WO2023043803A1) also was tested for genotoxic and cytotoxic side effects by Ames test. […]

[4] = test system: Escherichia coli tester strain WP2 uvrA (pKM101); assay: Ames test (Bacterial Reverse Mutation Test), E. coli; assay type: cell-based
Protocol: as §1, §2

[5] = test system: MB-231 xenograft tumors; assay: TNBC MB-231 xenograft model; assay type: in vivo, Nu/Nu nude mice; details: oral 20 or 40 mg/Kg, 5 times a week
Protocol: Seven-week-old Nu/Nu athymic female mice were injected subcutaneously into the right flank with 5×10^6 MB-231 cells 1:1 with Matrigel. Once tumors reached ˜50 mm^3 in size, mice were divided into 3 groups (n=5 for each group) and treatment started. Mice were treated by gavage with either vehicle (0.5% methyl cellulose, 1% Tween 80), 20 mg/kg, or 40 mg/kg of PD152 dissolved in vehicle, 5 days a week. Thirty days after treatment started mice were scarified. Statistical significance between the different treatment groups was evaluated using a Student's t-test. The experiment was conducted after approval by the institutional animal care and use committee at Case Western Reserve University.
TNBC xenograft model was used to test the efficacy of PD152 in suppressing tumors growth in vivo. 5×10^6 MB-231 cells were subcutaneously injected into the right flank of Nu/Nu nude mice and tumor growth was monitored twice a week. Once tumors were established and reached volume of ˜50 mm^3, mice were divided into 3 groups and treatments started. Mice were treated orally by either PD152 (20 mg/Kg, or 40 mg/Kg), or a vehicle 5 times a week.

[6] = rat, plasma, intravenous 1 mg/kg
[7] = TA98, presence of S9, 0.0312 μg/plate
[8] = TA98, presence of S9, 0.1 μg/plate
[9] = TA98, presence of S9, 0.316 μg/plate
[10] = TA98, presence of S9, 1 μg/plate
[11] = TA98, presence of S9, 3.16 μg/plate
[12] = TA98, presence of S9, 10 μg/plate
[13] = TA98, presence of S9, 31.6 μg/plate
[14] = TA98, presence of S9, 100 μg/plate
[15] = TA98, presence of S9, 316 μg/plate
[16] = TA98, presence of S9, 1000 μg/plate
[17] = presence of S9, 0.0312 μg/plate

Sequence of PPARα (Q07869 whole entry, species assumed): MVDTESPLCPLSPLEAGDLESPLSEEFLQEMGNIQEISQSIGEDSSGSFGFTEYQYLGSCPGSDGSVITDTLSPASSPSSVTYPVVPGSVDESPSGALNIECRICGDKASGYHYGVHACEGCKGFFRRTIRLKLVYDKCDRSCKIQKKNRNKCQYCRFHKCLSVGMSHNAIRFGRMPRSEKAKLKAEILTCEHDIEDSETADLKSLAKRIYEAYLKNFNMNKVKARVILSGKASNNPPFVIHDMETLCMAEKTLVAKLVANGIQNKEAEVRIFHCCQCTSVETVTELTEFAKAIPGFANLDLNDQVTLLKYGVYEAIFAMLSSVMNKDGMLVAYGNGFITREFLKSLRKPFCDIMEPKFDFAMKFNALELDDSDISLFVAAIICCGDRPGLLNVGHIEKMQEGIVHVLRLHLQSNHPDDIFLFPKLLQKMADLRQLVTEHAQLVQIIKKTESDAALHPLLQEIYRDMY

Which results are given for CC(C)Oc1nc(NC(=O)CSCC(=O)O)c(Cl)cc1Cl [PD152, 2-((2-((3,5-dichloro-6-isopropoxypyridin-2-yl)amino)-2-oxoethyl)thio)acetic acid]?
Activation of transcription by PPARα [1]: None of these tested compounds activated; also recorded: none of the tested compounds PD151 and PD152 activated transcription; Thalf ([2]; oral 10 mg/kg): 1.13 h; clearance [2, 6]: 16 mL/min/kg; half-life [2, 6]: ~43.8 min; bioavailability ([2]; rat, plasma, oral 10 mg/kg): 141%; Fold increase [3, 7]: 1; Mean number of revertants [3, 7]: 6; Fold increase [3, 8]: 1; Mean number of revertants [3, 8]: 5; Fold increase [3, 9]: 1; Mean number of revertants [3, 9]: 6; Fold increase [3, 10]: 1; Mean number of revertants [3, 10]: 6; Fold increase [3, 11]: 1; Mean number of revertants [3, 11]: 6; Fold increase [3, 12]: 1; Mean number of revertants [3, 12]: 6; Fold increase [3, 13]: 1; Mean number of revertants [3, 13]: 6; Fold increase [3, 14]: 1; Mean number of revertants [3, 14]: 6; Fold increase [3, 15]: 1; Mean number of revertants [3, 15]: 6; Fold increase [3, 16]: 1; Mean number of revertants [3, 16]: 5; Fold increase ([4]; absence of S9, 0.0312 μg/plate): 1; Mean number of revertants ([4]; absence of S9, 0.0312 μg/plate): 41; Fold increase ([4]; absence of S9, 0.1 μg/plate): 1; Mean number of revertants ([4]; absence of S9, 0.1 μg/plate): 39; Fold increase ([4]; absence of S9, 0.316 μg/plate): 1; Mean number of revertants ([4]; absence of S9, 0.316 μg/plate): 41; Fold increase ([4]; absence of S9, 1 μg/plate): 1; Mean number of revertants ([4]; absence of S9, 1 μg/plate): 39; Fold increase ([4]; absence of S9, 3.16 μg/plate): 1; Mean number of revertants ([4]; absence of S9, 3.16 μg/plate): 42; Fold increase ([4]; absence of S9, 10 μg/plate): 1; Mean number of revertants ([4]; absence of S9, 10 μg/plate): 40; Fold increase ([4]; absence of S9, 31.6 μg/plate): 1; Mean number of revertants ([4]; absence of S9, 31.6 μg/plate): 42; Fold increase ([4]; absence of S9, 100 μg/plate): 1; Mean number of revertants ([4]; absence of S9, 100 μg/plate): 42; Fold increase ([4]; absence of S9, 316 μg/plate): 1; Mean number of revertants ([4]; absence of S9, 316 μg/plate): 40; Fold increase ([4]; absence of S9, 1000 μg/plate): 1; Mean number of revertants ([4]; absence of S9, 1000 μg/plate): 42; Fold increase [4, 17]: 1; Mean number of revertants [4, 17]: 39; Fold increase ([4]; presence of S9, 0.1 μg/plate): 1; Mean number of revertants ([4]; presence of S9, 0.1 μg/plate): 42; Fold increase ([4]; presence of S9, 0.316 μg/plate): 1; Mean number of revertants ([4]; presence of S9, 0.316 μg/plate): 40; Fold increase ([4]; presence of S9, 1 μg/plate): 1; Mean number of revertants ([4]; presence of S9, 1 μg/plate): 38; Fold increase ([4]; presence of S9, 3.16 μg/plate): 1; Mean number of revertants ([4]; presence of S9, 3.16 μg/plate): 38; Fold increase ([4]; presence of S9, 10 μg/plate): 1; Mean number of revertants ([4]; presence of S9, 10 μg/plate): 41; Fold increase ([4]; presence of S9, 31.6 μg/plate): 1; Mean number of revertants ([4]; presence of S9, 31.6 μg/plate): 41; Fold increase ([4]; presence of S9, 100 μg/plate): 1; Mean number of revertants ([4]; presence of S9, 100 μg/plate): 39; Fold increase ([4]; presence of S9, 316 μg/plate): 1; Mean number of revertants ([4]; presence of S9, 316 μg/plate): 40; Fold increase ([4]; presence of S9, 1000 μg/plate): 1; Mean number of revertants ([4]; presence of S9, 1000 μg/plate): 40; Tumor growth (volume over time) ([5]; 30 days): growth was completely inhibited; Tumor weight at end point ([5]; day 30): significantly lower
